Laboratory results taken from patent US20050282745A1, “Non-mammalian GnRH analogs and uses thereof in regulation of fertility and pregnancy” (priority 2001, published 2005).
Values belong to the compound of their own block, whether it stands above or below them. Non-standard residues stand in square brackets, D forms with d. Residues, ends and D or L forms follow the SMILES beside them. *: point of attachment. dPhe(4-Cl) = N[C@H](Cc1ccc(Cl)cc1)C(=O)O; d2Nal = N[C@H](Cc1ccc2ccccc2c1)C(=O)O; Lys(iPr) = CC(C)NCCCC[C@H](N)C(=O)O; d3Pal = N[C@H](Cc1cccnc1)C(=O)O; pGlu = O=C1CC[C@@H](C(=O)O)N1; Nicotinoyl = O=C(c1cccnc1)*

How the values were obtained:
[1] = test system: chorionic peptidase-1 (C-ase-1); assay: C-ase-1 enzyme activity assay, competition for degradation of GnRH; conditions: for relative potency of inhibition of C-ase-1 degradation of GnRH, compared to GnRH: Example V; for Ki: competition for degradation of mammalian GnRH
Experimental: (§1) Using the incubation system developed for the C-ase-1 activity, the degradation of each analog was tested. […] These studies were done using the C-ase-1 enzyme activity assay as described previously. […] The product formed was calculated by subtraction, and its inverse plotted against the inverse of the original substrate concentrations to determine the nature of the competition. The Ki was to be determined by plotting the inverse of the product that formed verses the inhibitor used.
(§2) The concentration of the product of the degraded GnRH was quantified by subtracting the remaining mammalian GnRH from the starting concentrations of mammalian GnRH. […] The Ks for the degradation of mammalian GnRH was calculated from the x axis intercept using Lineweaver-Burke double reciprocal plot of the concentration of the product formed versus the concentration of the substrate used.
(§3) The reaction was stopped by heating at 85° C. for 10 minutes. The remaining GnRH was determined using a specific radioimmunoassay. The formation of product, i.e., the N-terminal nonapeptide of GnRH, was calculated by subtraction and its inverse was plotted versus the inverse of the initial substrate to determine the Ks of the reaction. […] The relative potency of each analog was compared.
(§4) Using the incubation system developed for the C-ase-1 activity, the degradation of each analog was studied. […] The inverse of the product was plotted against the inverse of the original substrate concentrations to determine Ks of the competition. The Ki was determined by plotting the inverse of the product formed verses the inhibitor used.

[2] = test system: chorionic peptidase-1 (C-ase-1)
Experimental: as §1, §2, §3, §4

[3] = test system: pregnant baboons; assay: Pregnant baboons, mini-pump days 14-21 post ovulation; assay type: in vivo, baboon
Experimental: Mammalian GnRH analogs, ZOLADEX™ (Goserelin acetate) and Organon 30276, were administered to pregnant baboons via mini-pump on days 14 through 21 post ovulation. The hormonal release and pregnancy outcome was compared to saline treated controls. […] In a dose-response saline-controlled study using very high doses of mammalian GnRH analog, a small stimulation of hCG in very early pregnancy was observed by the present inventor.

[4] = test system: human placental GnRH receptor; assay: Placental GnRH receptor binding, 125I-Buserelin label; conditions: for receptor activity/potency compared with GnRH: 125I-Buserelin, Example VI
Experimental: The newly synthesized non-mammalian GnRH analogs and other commercially available mammalian GnRH analogs were used in placental receptors binding and enzyme stability study described here. […] GnRH receptors were purified from the membrane fractions from placentas. The purification procedure for the placental GnRH receptor was performed using a modification of the method described by Bramley et al., which reference is specifically incorporated herein by reference for the purpose. Addition of enzyme inhibitors for the endogenous C-ase-1 were used as well as agents for receptor stabilization. Initially, receptor-binding assays using ^125I-Buserelin as label were performed. The competitive binding of each of the analogs was studied over a dose range of 10^−11 to 10^−6 M. Incubation was at room temperature and receptor bound label was precipitated with polyethylene glycol. Specific and non-specific binding was determined. The data was subjected to Scatchard analysis. The non-mammalian GnRH analogs' ability to bind to the placental GnRH receptor was compared to that for synthetic mammalian GnRH (SEQ ID NO: 5), Buserelin (SEQ ID NO: 10) and other mammalian analogs. […] This way, the receptor affinity for that analog could be precisely determined. Receptors from three different term placentas were used to study each of these analogs. […] Bramley T A, McPhie C A, Menzies G S 1994 Human placental gonadotropin-releasing hormone (GnRH) binding sites: 111. […] Placenta 15:733-745.
In these and additional studies, placental GnRH receptors were purified from human term placentas after homogenization in 40 mM Tris (pH 7.4) and filtered through cheesecloth, followed by an initial centrifugation at 1,000×g for 10 minutes. The resulting supernatant was, again, centrifuged at 35,000×g for 30 minutes and the membrane pellet was collected and resuspended in Tris buffer with 0.3 M sucrose. The protein concentration was determined. Membranes were stored frozen at −20 C until use. Before use, placental membranes were diluted to 5,000 μg/mL with Tris buffer containing 0.5% BSA and 50 U/mL bacitracin. […] Following incubation at room temperature for 4 hours, the bound and free hormones were separated using polyethylene glycol precipitation, followed by centrifugation. The binding affinity for each GnRH isoform or analog was calculated using the double reciprocal plot of bound versus free ligand. Each study was done using three different human term placental tissues.
Receptor assays were performed by incubating human term placental GnRH receptors with varying concentrations of GnRH or its analogs in the presence of ^125I-Buserelin. The reaction was stopped and the bound hormone precipitated with polyethylene glycol.

[5] = test system: placental homogenate; assay: Degradation in whole placental homogenate; assay type: in vitro ADME, human
Experimental: Studies using whole placental homogenate were also performed. […] The competition by the newly synthesized non-mammalian GnRH analogs as compared to mammalian GnRH (SEQ ID NO: 5) was then studied to confirm the C-ase-1 studies above. […] (FIG. 3)
The stability of these analogs in the present of whole placental homogenates was examined. The ethylamide derivative has a slowed degradation rate as compared to GnRH, but can be degraded.

relative potency of inhibition of C-ase-1 degradation of GnRH, compared to GnRH [1]: 0.6
potency as competitor compared with salmon or chicken II GnRHs ([1]; Example VII): two-fold more potent
potency as competitor for GnRH degradation by C-ase-1 compared with GnRH ([1]; Example VII): three-fold less potent
degradation by / competition for C-ase-1, in words [2]: degraded with reduced activity
Compound: CC(=O)N[C@H](Cc1ccc2ccccc2c1)C(=O)N[C@H](Cc1ccc(Cl)cc1)C(=O)N[C@H](Cc1cccnc1)C(=O)N[C@@H](CO)C(=O)N[C@@H](CCCCNC(=O)c1cccnc1)C(=O)N[C@H](CCCCNC(=O)c1cccnc1)C(=O)N[C@@H](CC(C)C)C(=O)N[C@@H](CCCCNC(C)C)C(=O)N1CCC[C@H]1C(=O)N[C@H](C)C(N)=O [Antide] (Ac-[d2Nal][dPhe(4-Cl)][d3Pal]SK(Nicotinoyl)[dK](Nicotinoyl)L[Lys(iPr)]P[dA]-NH2; N-terminus and C-terminus assumed)

receptor activity/potency compared with GnRH [4]: half the potency
receptor activity/potency compared with GnRH ([4]; listed as 6Im-btl-D-His-GnRH-^10 ethylamide): half the potency
receptor activity/potency compared with GnRH ([4]; listed as Im-Btl-His(6) analog): reduced receptor potency
degradation by / competition for C-ase-1, in words [2]: resistant to degradation
Compound: CCNC(=O)[C@@H]1CCCN1C(=O)[C@H](CCCNC(=N)N)NC(=O)[C@H](CC(C)C)NC(=O)[C@@H](Cc1cn(Cc2ccccc2)cn1)NC(=O)[C@H](Cc1ccc(O)cc1)NC(=O)[C@H](CO)NC(=O)[C@H](Cc1c[nH]c2ccccc12)NC(=O)[C@H](Cc1cnc[nH]1)NC(=O)[C@@H]1CCC(=O)N1 [^6Im-btl-D-His-GnRH^10 ethylamide, des-Gly^10-Im-Btl-D-His^6-GnRH-ethylamide]

receptor binding potency compared with chicken II GnRH isoform or Buserelin ([4]; Buserelin label, Example II): equipotent to Buserelin
receptor binding potency compared with mammalian GnRH ([4]; Buserelin label, Example II): three-fold more potent
degradation/competition relative to mammalian GnRH ([1]; Example III): one-sixth
relative potency of inhibition of C-ase-1 degradation of GnRH, compared to GnRH [1]: 0.2
Ki ([1]; Example III): 200 nM
Compound: NC(=O)CNC(=O)[C@@H]1CCCN1C(=O)[C@H](Cc1ccc(O)cc1)NC(=O)[C@H](Cc1c[nH]c2ccccc12)NC(=O)CNC(=O)[C@H](Cc1c[nH]cn1)NC(=O)[C@H](CO)NC(=O)[C@H](Cc1c[nH]c2ccccc12)NC(=O)[C@H](Cc1c[nH]cn1)NC(=O)[C@@H]1CCC(=O)N1 [chicken II GnRH] ([pGlu]HWSHGWYPG-NH2; C-terminus assumed)
stability in whole placental homogenates [5]: more stable than the mammalian GnRH analogs

degradation by / competition for C-ase-1, in words [2]: potent competitive inhibitors
Compound: CCNC(=O)[C@@H]1CCCN1C(=O)[C@H](CCCNC(=N)N)NC(=O)[C@H](CC(C)C)NC(=O)CNC(=O)[C@H](Cc1ccc(O)cc1)NC(=O)[C@H](CO)NC(=O)[C@H](Cc1c[nH]c2ccccc12)NC(=O)[C@H](Cc1c[nH]cn1)NC(=O)[C@@H]1CCC(=O)N1 [des-Gly^10-GnRH-ethylamide] ([pGlu]HWSYGLRP-NHEt)

relative potency of inhibition of C-ase-1 degradation of GnRH, compared to GnRH [1]: 0.2
Compound: CC(C)C[C@H](NC(=O)[C@H](Cc1c[nH]c2ccccc12)NC(=O)CNC(=O)[C@H](Cc1ccc(O)cc1)NC(=O)[C@H](CO)NC(=O)[C@H](Cc1c[nH]c2ccccc12)NC(=O)[C@H](Cc1c[nH]cn1)NC(=O)[C@@H]1CCC(=O)N1)C(=O)N1CCC[C@H]1C(=O)NCC(N)=O [salmon GnRH] ([pGlu]HWSYGWLPG-NH2)

relative potency of inhibition of C-ase-1 degradation of GnRH, compared to GnRH [1]: 1.5
potency as competitor for GnRH degradation by C-ase-1 compared with GnRH ([1]; Example VII): as or even more potent than GnRH
Compound: ^9OH-Pro-GnRH

degradation by / competition for C-ase-1, in words [2]: resistant to degradation
Compound: chicken II GnRH-^10 aza-Gly-amide

More lines, now with the values behind:

Compound: CCNC(=O)[C@@H]1CCCN1C(=O)[C@H](Cc1ccc(O)cc1)NC(=O)[C@H](Cc1c[nH]c2ccccc12)NC(=O)[C@@H](CCCNC(=N)N)NC(=O)[C@H](Cc1c[nH]cn1)NC(=O)[C@H](CO)NC(=O)[C@H](Cc1c[nH]c2ccccc12)NC(=O)[C@H](Cc1c[nH]cn1)NC(=O)[C@@H]1CCC(=O)N1 [D-Arg-chicken II GnRH-ethylamide, D-Arg (6)-chicken II GnRH-des-Gly (10)-ethylamide] ([pGlu]HWSH[dR]WYP-NHEt)
Ki ([1]; Example III): > 200 nM

Compound: CCNC(=O)[C@@H]1CCCN1C(=O)[C@H](CCCNC(=N)N)NC(=O)[C@H](CC(C)C)NC(=O)[C@@H](CC(C)C)NC(=O)[C@H](Cc1ccc(O)cc1)NC(=O)[C@H](CO)NC(=O)[C@H](Cc1c[nH]c2ccccc12)NC(=O)[C@H](Cc1c[nH]cn1)NC(=O)[C@@H]1CCC(=O)N1 [MAMMALIAN D-LEU (6), EA (10), des-Gly^10, D-Leu^6-GnRH-ethylamide]
degradation by / competition for C-ase-1, in words [2]: potent competitive inhibitors

Compound: CC(C)C[C@H](NC(=O)[C@@H](COC(C)(C)C)NC(=O)[C@H](Cc1ccc(O)cc1)NC(=O)[C@H](CO)NC(=O)[C@H](Cc1c[nH]c2ccccc12)NC(=O)[C@H](Cc1cnc[nH]1)NC(=O)[C@@H]1CCC(=O)N1)C(=O)N[C@@H](CCCNC(=N)N)C(=O)N1CCC[C@H]1C(=O)NNC(N)=O [ZOLADEX, Goserelin acetate]
abortions ([3]; in vivo): not consistently effected
pregnancy outcome ([3]; in vivo): in most animals pregnancy outcomes were jeopardized
CG and progesterone ([3]; vs saline controls): decreased

Compound: CCNC(=O)[C@@H]1CCCN1C(=O)[C@H](CCCNC(=N)N)NC(=O)[C@H](CC(C)C)NC(=O)[C@@H](Cc1c[nH]c2ccccc12)NC(=O)[C@H](Cc1ccc(O)cc1)NC(=O)[C@H](CO)NC(=O)[C@H](Cc1c[nH]c2ccccc12)NC(=O)[C@H](Cc1c[nH]cn1)NC(=O)[C@@H]1CCC(=O)N1 [^6D-Trp-GnRH-^10 ethylamide]
receptor activity/potency compared with GnRH [4]: twice as active

Compound: CCNC(=O)[C@@H]1CCCN1C(=O)[C@H](Cc1ccc(O)cc1)NC(=O)[C@H](Cc1c[nH]c2ccccc12)NC(=O)CNC(=O)[C@H](Cc1c[nH]cn1)NC(=O)[C@H](CO)NC(=O)[C@H](Cc1c[nH]c2ccccc12)NC(=O)[C@H](Cc1c[nH]cn1)NC(=O)[C@@H]1CCC(=O)N1 [chicken II GnRH ethylamide, chicken II GnRH-^10 ethylamide] ([pGlu]HWSHGWYP-NHEt)
receptor activity/potency compared with GnRH [4]: 33 fold
stability in whole placental homogenates [5]: more stable than the mammalian GnRH analogs

Compound: CC(C)C[C@H](NC(=O)[C@H](CO)NC(=O)[C@H](Cc1ccc(O)cc1)NC(=O)[C@H](Cc1c[nH]cn1)NC(=O)[C@@H]1CCC(=O)N1)C(=O)N[C@@H](CCC(=O)O)C(=O)N[C@@H](Cc1c[nH]c2ccccc12)C(=O)N[C@@H](CCCCN)C(=O)N1CCC[C@H]1C(=O)NCC(N)=O [lamprey GnRH] ([pGlu]HYSLEWKPG-NH2)
relative potency of inhibition of C-ase-1 degradation of GnRH, compared to GnRH [1]: 1.5
potency as competitor for GnRH degradation by C-ase-1 compared with GnRH ([1]; Example VII): as or even more potent than GnRH
